Assay results: patent US11524962B2, “Substituted pyrrolo[2,3-d]pyrimidines as inhibitors of protein arginine methyl transferase 5 (PRMT5)” (PRELUDE THERAPEUTICS, INCORPORATED, priority 2017, dated 2022)
Like-named read-outs stand apart in the source and are kept apart here.

Columns and labels:
[1] = target: T1, PRMT5/MEP50 complex (Homo sapiens (Human), UniProt O14744); assay: HotSpot Assay; assay type: biochemical
Protocol: HotSpot Assay. Compounds were solubilized and 3-fold diluted in 100% DMSO. […] Standard reactions were performed in a total volume of 50 μl in assay buffer, with histone H2A (5 μM final) as substrate. To this was added the PRMT5/MEP50 complex diluted to provide a final assay concentration of 5 nM and the compounds were allowed to preincubate for 15 to 20 minutes at room temperature. The reaction was initiated by adding S-[3H-methyl]-adenosyl-L-methionine (PerkinElmer) to final concentration of 1 μM. Following a 60 minutes incubation at 30° C., the reaction was stopped by adding 100 μL of 20% TCA. Each reaction was spotted onto filter plate (MultiScreen FB Filter Plate, Millipore), and washed 5 times with PBS buffer, Scintillation fluid was added to the filter plate and read in a scintillation counter. IC50 values were determined by fitting the data to the standard 4 parameters with Hill Slope using GraphPad Prism software. This procedure generated the HotSpot data in Table 7.

[2] = tested on: Symmetric Di-Methyl Arginine (sDMA) marks in Granta-519 cells; assay: sDMA Western blot / In Cell Western in Granta-519 cells; assay type: cell-based; conditions: Homo sapiens
Protocol: Compound titration and cell culture: Compounds were dissolved in DMSO to make 10 mM stock and 3-fold series dilutions were further conducted to make working stocks top at 1 mM. Granta-519 cells were maintained in PRMI 1640 (Corning Cellgro, Catalog #: 10-040-CV) supplemented with 10% v/v FBS (GE Healthcare, Catalog #: SH30910.03) and U-87 MG cells were maintained in DMEM (Corning Cellgro, Catalog #: 10-013-CV) with 10% FBS and 2 mM Glutamin (Corning Cellgro, Catalog #25005CV).
To determine enzyme inhibition IC50 values in Granta-519 and U-87 MG cells using Western Blot analysis. One day before experiment, Granta-519 cells were passaged to a density of 0.5×10^6 cells/ml. U-87 MG cells were trypsinized and 4×10^5 cells were seeded into 6-well plates and allow to grow overnight. The next day, Granta-519 cells were spun down at 1,500 rpm for 4 min, resuspend in fresh medium at 0.5×10^6 cells/ml and 3 mL of culture (1.5×10^6 cells) were seeded into 6 well plate. Eight-point, 3-fold serial dilutions of compound working stocks were added to cells (3 ul, 1:1,000 dilution, DMSO concentration was 0.1%; final top concentration at 1 uM) and incubated for 3 days. Cells incubated with DMSO was used as a vehicle control.
Cells were harvested 3 days later, resuspended in 15 uL PBS, lysed in 4% SDS, and homogenized by passing through homogenizer column (Omega Biotek, Catalog #: HCR003). Total protein concentrations were determined by BCA assay (ThermoFisher Scientific, Catalog #: 23225). Lysates were mixed with 5× Laemmli buffer and boiled for 5 min. Forty ug of total protein was separated on SDS-PAGE gels (Bio-Rad, catalog #: 4568083, 4568043), transferred to PVDF membrane, blocked with 5% dry milk (Bio-Rad, Catalog #: 1706404) in TBS with 0.1% v/v Tween 20 (TBST) for 1 hour at room temperature (RT), and incubated with primary antibodies (sDMA: Cell signaling, Catalog #: 13222, 1:3,000; β-Actin: sigma, Catalog #: 1:5,000) in 5% dry milk in TBST at 4° C. overnight. The next day, membranes were washed with TBST, 5×5 min, and incubated with HRP conjugated seconded antibody (GE Healthcare; Catalog #: NA934-1ML, NA931-1ML; 1:5,000) for 2 hours at RT, followed by 5×5 min washes with TBST, and incubation with ECL substrates (Bio-Rad, Catalog #: 1705061, 1705062). Chemiluminescent signal was captured with Fluochem HD2 imager (Proteinsimple). SmD3me2s bands were quantified by ImageJ. Signals were normalized to β-Actin and DMSO control. IC50 values were calculated using Graphpad Prism ([Inhibitor]vs. normalized response−Variable slope).
sDMA In Cell Western procedure (ICW): Granta-519 cells were passaged to a density of 0.5×10^6 cells/ml one day before experiments and allowed to grow overnight. The next day (day 0), cells were spun down at 1,500 rpm for 4 min, resuspended in fresh medium to 0.2×10^6 cells/ml and 100 uL of cells were added to 384-well plates using a Multidrop Combi Dispenser (ThermoFisher). A series of 9-point, 3-fold serial dilutions of compounds were prepared and dispensed into wells from a 1 mM stock solution using a TECAN digital dispenser (D300e) and the DMSO % concentration was normalized in each well to 0.1%. DMSO and 3 uM of reference compounds were used as negative (minimum inhibition) and positive (maximum inhibition) controls, respectively. After 3 days of incubation, cells were first resuspended and then 80 ul of cells were transferred to a Poly-D-lysine 384-well plate (Corning, Catalog #354663), followed by 30 minutes incubation at room temperature (RT) and 5 additional hours of incubation at 37° C. […]

[3] = target: T1, PRMT5/MEP50 complex; assay: Flash plate assay; assay type: biochemical
Protocol: Flash plate assay. Compounds were solubilized, and 3-fold diluted in 100% DMSO. […] Standard reactions were performed in a total volume of 30 μl in assay buffer, with 300 nM histone H4 based AcH4-23 (Anaspec: AS-65002) as substrate. To this was added the PRMT5/MEP50 complex diluted to provide a final assay concentration of 2.5 nM and the compounds were allowed to preincubate for 20 minutes at 37° C. The reaction was initiated by adding S-[3H-methyl]-adenosyl-L-methionine (PerkinElmer: NET155001MC) to final concentration of 1 μM. Following a 30 minutes incubation at 37° C., the reaction was stopped by adding 25 μL of 8M Guanidine HCl. Prepare streptavidin YSI SPA beads (Perkinelmer: RPNQ0012) at 0.3 mg/mL in assay buffer. To each reaction, add 150 μL of SPA beads suspension, and incubated while shaking at room temperature for 30 minutes. The plate was centrifuged at 100×g for 30 second before reading in a scintillation counter. IC50 values were determined by fitting the data to the standard 4 parameters with Hill Slope using GraphPad Prism software. This procedure produced the Flash Plate data in Table 7.

[4] = 72 h, Granta-519, 3 days, read-out: sDMA_Granta IC50
[5] = initial testing, read-out: IC50 (flash plate)

T1 sequence (O14744 whole entry): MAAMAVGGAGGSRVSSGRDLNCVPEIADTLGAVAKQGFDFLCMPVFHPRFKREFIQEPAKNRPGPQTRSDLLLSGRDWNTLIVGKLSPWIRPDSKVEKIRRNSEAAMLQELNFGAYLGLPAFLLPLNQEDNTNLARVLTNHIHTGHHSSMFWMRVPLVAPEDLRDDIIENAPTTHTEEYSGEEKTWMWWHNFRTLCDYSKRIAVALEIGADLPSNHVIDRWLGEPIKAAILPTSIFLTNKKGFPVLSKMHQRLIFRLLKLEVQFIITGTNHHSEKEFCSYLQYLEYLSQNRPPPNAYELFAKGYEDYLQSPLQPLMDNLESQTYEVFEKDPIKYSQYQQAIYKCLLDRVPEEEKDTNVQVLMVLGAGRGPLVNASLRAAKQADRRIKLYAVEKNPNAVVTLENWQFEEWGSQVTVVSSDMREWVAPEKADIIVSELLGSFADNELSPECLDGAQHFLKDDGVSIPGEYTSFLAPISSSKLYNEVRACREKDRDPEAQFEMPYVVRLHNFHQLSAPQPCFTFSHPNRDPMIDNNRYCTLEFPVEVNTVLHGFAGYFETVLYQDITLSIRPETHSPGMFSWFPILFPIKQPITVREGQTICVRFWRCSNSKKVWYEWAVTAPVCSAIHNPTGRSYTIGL
T1 sequence (Q9BQA1 whole entry partner): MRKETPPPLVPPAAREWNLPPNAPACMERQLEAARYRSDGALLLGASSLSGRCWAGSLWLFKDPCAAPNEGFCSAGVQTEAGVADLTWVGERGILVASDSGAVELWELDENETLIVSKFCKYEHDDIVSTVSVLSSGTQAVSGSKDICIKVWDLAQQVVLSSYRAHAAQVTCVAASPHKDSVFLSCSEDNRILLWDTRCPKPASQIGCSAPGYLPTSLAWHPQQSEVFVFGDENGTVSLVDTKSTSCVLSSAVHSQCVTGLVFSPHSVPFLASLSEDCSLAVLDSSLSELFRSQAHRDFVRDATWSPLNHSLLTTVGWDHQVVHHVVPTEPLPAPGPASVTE

Compound: C[C@@](O)(c1ccc2c(c1)CC2)[C@H]1O[C@@H](n2ccc3c(N)ncnc32)[C@H](O)[C@@H]1O [Example 1, (2R,3R,4S,5S)-2-(4-amino-7H-pyrrolo[2,3-d]pyrimidin-7-yl)-5-((R)-1-(bicyclo[4.2.0]octa-1(6),2,4-trien-3-yl)-1-hydroxyethyl)tetrahydrofuran-3,4-diol]
- IC50 [1]: 3 nM
- IC50 [2, 4]: 22 nM
- IC50 ([2]; Granta-519, initial testing, read-out: sDMS (Granta) IC50): 9 nM
- IC50 [3, 5]: 6.3 nM
- IC50 ([3]; read-out: Flash Plate IC50): 6.2 nM

Compound: Nc1ncnc2c1ccn2[C@@H]1O[C@H]([C@H](O)c2ccc3c(c2)CC3)[C@@H](O)[C@H]1O [Example 2, (2R,3R,4S,5R)-2-(4-amino-7H-pyrrolo[2,3-d]pyrimidin-7-yl)-5-((R)-bicyclo[4.2.0]octa-1(6),2,4-trien-3-yl(hydroxy)methyl)tetrahydrofuran-3,4-diol]
- IC50 [1]: 2 nM
- IC50 [2, 4]: 20 nM
- IC50 [3, 5]: 4.2 nM
- IC50 ([3]; read-out: Flash Plate IC50): 4.1 nM

Compound: Nc1ncnc2c1c(F)cn2[C@@H]1O[C@H]([C@H](O)c2ccc3c(c2)CC3)[C@@H](O)[C@H]1O [Example 6, (2R,3R,4S,5R)-2-(4-amino-5-fluoro-7H-pyrrolo[2,3-d]pyrimidin-7-yl)-5-((R)-bicyclo[4.2.0]octa-1(6),2,4-trien-3-yl(hydroxy)methyl)tetrahydrofuran-3,4-diol]
- IC50 [1]: 0.7 nM
- IC50 [2, 4]: 38 nM
- IC50 ([3]; read-out: Flash Plate IC50): 2.8 nM

Compound: Cc1ncnc2c1ccn2[C@@H]1O[C@H]([C@H](O)c2ccc3c(c2)CC3)[C@@H](O)[C@H]1O [Example 11, (2R,3S,4R,5R)-2-((R)-bicyclo[4.2.0]octa-1(6),2,4-trien-3-yl(hydroxy)methyl)-5-(4-methyl-7H-pyrrolo[2,3-d]pyrimidin-7-yl)tetrahydrofuran-3,4-diol]
- IC50 [1]: 3 nM
- IC50 [2, 4]: 33 nM
- IC50 [3, 5]: 5.9 nM
- IC50 ([3]; read-out: Flash Plate IC50): 6.8 nM

Compound: Nc1ncnc2c1c(Br)cn2[C@@H]1O[C@H]([C@H](O)c2ccc3c(c2)CC3)[C@@H](O)[C@H]1O [Example 36, (2R,3R,4S,5R)-2-(4-amino-5-bromo-7H-pyrrolo[2,3-d]pyrimidin-7-yl)-5-((R)-bicyclo[4.2.0]octa-1,3,5-trien-3-yl(hydroxy)methyl)tetrahydrofuran-3,4-diol]
- IC50 [1]: 11 nM
- IC50 [2, 4]: 3780 nM
- IC50 ([3]; read-out: Flash Plate IC50): 20 nM

Compound: Cc1ncnc2c1ccn2[C@@H]1O[C@H]([C@H](O)c2nc3c(s2)CCC3)[C@@H](O)[C@H]1O [Example 52, (2S,3S,4R,5R)-2-((S)-(5,6-dihydro-4H-cyclopenta[d]thiazol-2-yl)(hydroxy)methyl)-5-(4-methyl-7H-pyrrolo[2,3-d]pyrimidin-7-yl)tetrahydrofuran-3,4-diol]
- IC50 [1]: 9 nM
- IC50 [2, 4]: 1700 nM
- IC50 ([3]; read-out: Flash Plate IC50): 9.3 nM

Compound: OCCc1ncnc2c1ccn2[C@@H]1O[C@H]([C@H](O)c2ccc3c(c2)CC3)[C@@H](O)[C@H]1O [Example 53, (2R,3S,4R,5R)-2-((R)-bicyclo[4.2.0]octa-1,3,5-trien-3-yl(hydroxy)methyl)-5-(4-(2-hydroxyethyl)-7H-pyrrolo[2,3-d]pyrimidin-7-yl)tetrahydrofuran-3,4-diol]
- IC50 [1]: 164 nM
- IC50 [2, 4]: 5240 nM
- IC50 ([3]; read-out: Flash Plate IC50): 134 nM

Compound: CNc1ncnc2c1ccn2[C@@H]1O[C@H]([C@H](O)c2ccc3c(c2)CC3)[C@@H](O)[C@H]1O [Example 54, (2R,3S,4R,5R)-2-((R)-bicyclo[4.2.0]octa-1(6),2,4-trien-3-yl(hydroxy)methyl)-5-(4-(methylamino)-7H-pyrrolo[2,3-d]pyrimidin-7-yl)tetrahydrofuran-3,4-diol]
- IC50 [2, 4]: 759 nM
- IC50 ([3]; read-out: Flash Plate IC50): 37.6 nM

Compound: O[C@@H]1[C@H](O)[C@@H]([C@H](O)c2ccc3c(c2)CC3)O[C@H]1n1ccc2c(Cl)ncnc21 [Example 56, (2R,3S,4R,5R)-2-((R)-bicyclo[4.2.0]octa-1(6),2,4-trien-3-yl(hydroxy)methyl)-5-(4-chloro-7H-pyrrolo[2,3-d]pyrimidin-7-yl)tetrahydrofuran-3,4-diol]
- IC50 [2, 4]: 923 nM
- IC50 ([3]; read-out: Flash Plate IC50): 17.6 nM
